{"source": "patent US7138231B2", "about": "(priority 2000, dated 2006)", "key": {"[1]": {"tested_on": "HIV-1 patient-derived protease and reverse transcriptase segments (N88S in PR) in resistance test vectors", "assay": "Phenotypic drug susceptibility test with resistance test vectors from patient samples", "format": "cell-based", "conditions": "patient sample RTV-627"}, "[2]": {"tested_on": "HIV-1 patient viruses with protease L90M", "assay": "Phenotypic susceptibility profiles of 58 patient virus samples with L90M, no other primary mutations", "format": "cell-based", "conditions": "for % w with SQV FC > 2.5: L90M; for % FC > 2.5: SQV"}, "[3]": {"tested_on": "HIV-1 patient viruses with protease L90M", "assay": "Phenotypic susceptibility profiles of 333 patient virus samples with L90M (not 30 or 50)", "format": "cell-based", "conditions": "for % with SQV FC > 2.5 / wt % > 2.5 / wt % > 10: L90M"}, "[4]": {"tested_on": "HIV-1 variants with protease substitutions", "conditions": "both substitutions G48V-L90M; cited from earlier work"}, "HIV-1": {"tested_on": "HIV-1", "conditions": "cited from earlier work"}, "[5]": {"tested_on": "HIV-1 protease site-directed mutants (N88S, L63P, V77I, M46L) in resistance test vector", "assay": "Phenotypic susceptibility assay of resistance test vectors with site-directed mutations in PR", "source_text": "The resistance test vectors containing a functional luciferase gene cassette were constructed and host cells were transfected with the resistance test vector DNA. […] The resistance test vector viral particles produced by transfecting the resistance test vector DNA into host cells, either in the presence or absence of protease inhibitors, were used to infect target host cells grown either in the absence of NRTI or NNRTI or in the presence of increasing concentrations of the drug. Luciferase activity in infected target host cells in the presence of drug was compared to the luciferase activity in infected target host cells in the absence of drug. […] The IC50 values were determined by plotting percent drug inhibition vs. log10 drug concentration.\nHost cells were seeded in 10-cm-diameter dishes and were transfected one day after plating with resistance test vector plasmid DNA and the envelope expression vector. Transfections were performed using a calcium-phosphate co-precipitation procedure. The cell culture media containing the DNA precipitate was replaced with fresh medium, from one to 24 hours, after transfection. Cell culture media containing resistance test vector viral particles was harvested one to four days after transfection and was passed through a 0.45-mm filter before being stored at −80° C. HIV capsid protein (p24) levels in the harvested cell culture media were determined by an EIA method as described by the manufacturer (SIAC; Frederick, Md.). Before infection, target cells (293 and 293/T) were plated in cell culture media. Control infections were performed using cell culture media from mock transfections (no DNA) or transfections containing the resistance test vector plasmid DNA without the envelope expression plasmid. One to three or more days after infection the media was removed and cell lysis buffer (Promega) was added to each well. Cell lysates were assayed for luciferase activity. The inhibitory effect of the drug was determined using the following equation: % luciferase inhibition=[1−(RLUluc[drug]RLUluc)]×100 where RLUluc [drug] is the relative light unit of luciferase activity in infected cells in the presence of drug and RLUluc is the Relative Light Unit of luciferase activity in infected cells in the absence of drug. IC50 values were obtained from the sigmoidal curves that were generated from the data by plotting the percent inhibition of luciferase activity vs. the log10 drug concentration.\nMutations are introduced into the resistance test vector through any of the widely known methods for site-directed mutagenesis. […] A resistance test vector containing the specific mutation or group of mutations are then tested using the phenotypic susceptibility assay described above and the susceptibility profile is compared to that of a genetically defined wild-type (drug susceptible) resistance test vector which lacks the specific mutations.\nResistance test vectors were constructed containing the N88S mutation alone and in combination with other substitutions in PR (L63P, V77I and M46L) known to modulate the HIV susceptibility to PRIs. Mutations were introduced into the resistance test vector using the mega-primer PCR method for site-directed mutagenesis."}}}
{"smiles": "CC(C)(C)NC(=O)[C@@H]1C[C@@H]2CCCC[C@@H]2CN1C[C@@H](O)[C@H](Cc1ccccc1)NC(=O)[C@H](CC(N)=O)NC(=O)c1ccc2ccccc2n1", "note": "[saquinavir]", "values": [{"measurement": "change in susceptibility", "setting": "[1]", "value": "increase"}, {"measurement": "% w with SQV FC > 2.5", "setting": "[2]; number of secondary mutations 0", "value": 53, "unit": "%"}, {"measurement": "% w with SQV FC > 2.5", "setting": "[2]; number of secondary mutations 1", "value": 47, "unit": "%"}, {"measurement": "% w with SQV FC > 2.5", "setting": "[2]; number of secondary mutations 2", "value": 43, "unit": "%"}, {"measurement": "% w with SQV FC > 2.5", "setting": "[2]; number of secondary mutations 3", "value": 68, "unit": "%"}, {"measurement": "% w with SQV FC > 2.5", "setting": "[2]; number of secondary mutations 4", "value": 77, "unit": "%"}, {"measurement": "% w with SQV FC > 2.5", "setting": "[2]; number of secondary mutations 5", "value": 100, "unit": "%"}, {"measurement": "% w with SQV FC > 2.5", "setting": "[2]; number of secondary mutations 6", "value": 100, "unit": "%"}, {"measurement": "% FC > 2.5", "setting": "[2]; L90M + mutation at position 10", "value": 65, "unit": "%"}, {"measurement": "% FC > 2.5", "setting": "[2]; L90M + mutation at position 71", "value": 78, "unit": "%"}, {"measurement": "% FC > 2.5", "setting": "[2]; L90M + mutation at position 71, listed as SQV", "value": 78, "unit": "%"}, {"measurement": "% FC > 2.5", "setting": "[2]; L90M + mutation at position 73", "value": 79, "unit": "%"}, {"measurement": "% FC > 2.5", "setting": "[2]; L90M + mutation at position 73, listed as SQV", "value": 79, "unit": "%"}, {"measurement": "% FC > 2.5", "setting": "[2]; L90M + mutation at position 77", "value": 76, "unit": "%"}, {"measurement": "% FC > 2.5", "setting": "[2]; listed as 90: all viruses with L90M", "value": 55, "unit": "%"}, {"measurement": "% with SQV FC > 2.5", "setting": "[3]; number of secondary mutations (weighted count) 0", "value": 23.5, "unit": "%"}, {"measurement": "% with SQV FC > 2.5", "setting": "[3]; number of secondary mutations (weighted count) 1", "value": 25.0, "unit": "%"}, {"measurement": "% with SQV FC > 2.5", "setting": "[3]; number of secondary mutations (weighted count) 2", "value": 69.4, "unit": "%"}, {"measurement": "% with SQV FC > 2.5", "setting": "[3]; number of secondary mutations (weighted count) 3", "value": 85.7, "unit": "%"}, {"measurement": "% with SQV FC > 2.5", "setting": "[3]; number of secondary mutations (weighted count) 4", "value": 97.3, "unit": "%"}, {"measurement": "% with SQV FC > 2.5", "setting": "[3]; number of secondary mutations (weighted count) 5", "value": 100, "unit": "%"}, {"measurement": "% with SQV FC > 2.5", "setting": "[3]; number of secondary mutations (weighted count) 6 or more", "value": 100, "unit": "%"}, {"measurement": "wt % > 2.5", "setting": "[3]; Saquinavir FC>2.5, position 10 wild type", "value": 56.4, "unit": "%"}, {"measurement": "wt % > 2.5", "setting": "[3]; Saquinavir FC>2.5, position 20 wild type", "value": 73.9, "unit": "%"}, {"measurement": "wt % > 2.5", "setting": "[3]; Saquinavir FC>2.5, position 33 wild type", "value": 77.4, "unit": "%"}, {"measurement": "wt % > 2.5", "setting": "[3]; Saquinavir FC>2.5, position 36 wild type", "value": 74.9, "unit": "%"}, {"measurement": "wt % > 2.5", "setting": "[3]; Saquinavir FC>2.5, position 37 wild type", "value": 76.4, "unit": "%"}, {"measurement": "wt % > 2.5", "setting": "[3]; Saquinavir FC>2.5, position 48 wild type", "value": 78.1, "unit": "%"}, {"measurement": "wt % > 2.5", "setting": "[3]; Saquinavir FC>2.5, position 53 wild type", "value": 77.3, "unit": "%"}, {"measurement": "wt % > 2.5", "setting": "[3]; Saquinavir FC>2.5, position 54 wild type", "value": 68.1, "unit": "%"}, {"measurement": "wt % > 2.5", "setting": "[3]; Saquinavir FC>2.5, position 63 wild type", "value": 37.5, "unit": "%"}, {"measurement": "wt % > 2.5", "setting": "[3]; Saquinavir FC>2.5, position 64 wild type", "value": 83.1, "unit": "%"}, {"measurement": "wt % > 2.5", "setting": "[3]; Saquinavir FC>2.5, position 66 wild type", "value": 78.4, "unit": "%"}, {"measurement": "wt % > 2.5", "setting": "[3]; Saquinavir FC>2.5, position 71 wild type", "value": 58.0, "unit": "%"}, {"measurement": "wt % > 2.5", "setting": "[3]; Saquinavir FC>2.5, position 73 wild type", "value": 73.6, "unit": "%"}, {"measurement": "wt % > 2.5", "setting": "[3]; Saquinavir FC>2.5, position 84 wild type", "value": 70.7, "unit": "%"}, {"measurement": "wt % > 2.5", "setting": "[3]; Saquinavir FC>2.5, position 93 wild type", "value": 85.6, "unit": "%"}, {"measurement": "mt % > 2.5", "setting": "[3]; Saquinavir FC>2.5, listed as 90: all samples with L90M", "value": 79.3, "unit": "%"}, {"measurement": "wt % > 10", "setting": "[3]; Saquinavir FC>10, position 10 wild type", "value": 20.5, "unit": "%"}, {"measurement": "wt % > 10", "setting": "[3]; Saquinavir FC>10, position 20 wild type", "value": 33.9, "unit": "%"}, {"measurement": "wt % > 10", "setting": "[3]; Saquinavir FC>10, position 23 wild type", "value": 42.4, "unit": "%"}, {"measurement": "wt % > 10", "setting": "[3]; Saquinavir FC>10, position 35 wild type", "value": 38.8, "unit": "%"}, {"measurement": "wt % > 10", "setting": "[3]; Saquinavir FC>10, position 36 wild type", "value": 34.2, "unit": "%"}, {"measurement": "wt % > 10", "setting": "[3]; Saquinavir FC>10, position 48 wild type", "value": 40.8, "unit": "%"}, {"measurement": "wt % > 10", "setting": "[3]; Saquinavir FC>10, position 53 wild type", "value": 39.8, "unit": "%"}, {"measurement": "wt % > 10", "setting": "[3]; Saquinavir FC>10, position 54 wild type", "value": 32.8, "unit": "%"}, {"measurement": "wt % > 10", "setting": "[3]; Saquinavir FC>10, position 58 wild type", "value": 41.6, "unit": "%"}, {"measurement": "wt % > 10", "setting": "[3]; Saquinavir FC>10, position 62 wild type", "value": 38.5, "unit": "%"}, {"measurement": "wt % > 10", "setting": "[3]; Saquinavir FC>10, position 64 wild type", "value": 46.1, "unit": "%"}, {"measurement": "wt % > 10", "setting": "[3]; Saquinavir FC>10, position 71 wild type", "value": 29.0, "unit": "%"}, {"measurement": "wt % > 10", "setting": "[3]; Saquinavir FC>10, position 73 wild type", "value": 39.4, "unit": "%"}, {"measurement": "wt % > 10", "setting": "[3]; Saquinavir FC>10, position 77 wild type", "value": 49.5, "unit": "%"}, {"measurement": "wt % > 10", "setting": "[3]; Saquinavir FC>10, position 84 wild type", "value": 24.9, "unit": "%"}, {"measurement": "wt % > 10", "setting": "[3]; Saquinavir FC>10, position 93 wild type", "value": 50.7, "unit": "%"}, {"measurement": "mt % > 10", "setting": "[3]; Saquinavir FC>10, listed as 90: all samples with L90M", "value": 43.5, "unit": "%"}, {"measurement": "loss of susceptibility", "setting": "[4]", "value": "> 100", "unit": "fold"}, {"measurement": "patients in whom resistant variants emerge", "setting": "HIV-1; after 1 year of monotherapy with 1,800 mg daily", "value": "approximately 45%"}, {"measurement": "frequency of resistance", "setting": "HIV-1; combination therapy with zidovudine, zalcitabine, and saquinavir", "value": 22, "unit": "%"}, {"measurement": "Fold Change vs. reference", "setting": "[5]; site-directed mutation N88S", "value": 0.47, "unit": "fold"}, {"measurement": "Fold Change vs. reference", "setting": "[5]; site-directed mutations L63P", "value": 1.04, "unit": "fold"}, {"measurement": "Fold Change vs. reference", "setting": "[5]; site-directed mutations L63P, N88S", "value": 1.44, "unit": "fold"}, {"measurement": "Fold Change vs. reference", "setting": "[5]; site-directed mutations M46L, L63P, V77I, N88S", "value": 1.45, "unit": "fold"}]}
